Data as given in PubChem BioAssay (NCI).
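Five compound concentrations were applied to cells in 96-well plates for 48 hours; endpoints were derived by simple linear interpolation of the resulting dose-response curve. TGI marks complete inhibition of growth.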

Key:
Assay in all cases: NCI tumour cell line growth inhibition, 48 h
[1] = tested on: HOP-62 NSCLC
[2] = tested on: PC-3 prostate
[3] = tested on: HT29 colon
[4] = tested on: SK-MEL-28 melanoma
[5] = tested on: HCT-15 colon
[6] = tested on: SF-295 CNS
[7] = tested on: SK-MEL-2 melanoma
[8] = tested on: ACHN renal
[9] = tested on: SF-539 CNS
[10] = tested on: DU-145 prostate
[11] = tested on: NCI-H226 lung
[12] = tested on: HOP-92 NSCLC
[13] = tested on: COLO 205 colon
[14] = tested on: HS 578T breast
[15] = tested on: LOX IMVI melanoma
[16] = tested on: SR leukemia
[17] = tested on: OVCAR-8 ovarian
[18] = tested on: M14 melanoma
[19] = tested on: UACC-62 melanoma
[20] = tested on: SK-MEL-5 melanoma
[21] = tested on: CCRF-CEM leukemia
[22] = tested on: SW-620 colon
[23] = tested on: RPMI-8226 leukemia
[24] = tested on: K-562 leukemia
[25] = tested on: MDA-MB-435
[26] = tested on: MDA-MB-231 breast
[27] = tested on: SF-268 CNS
[28] = tested on: OVCAR-3 ovarian
[29] = tested on: MDA-N
[30] = tested on: IGROV1 ovarian
[31] = tested on: SK-OV-3 ovarian
[32] = tested on: TK-10 renal
[33] = tested on: MALME-3M melanoma
[34] = tested on: NCI-H23 lung
[35] = tested on: SNB-19 CNS
[36] = tested on: OVCAR-4 ovarian
[37] = tested on: NCI-H460 lung
[38] = tested on: NCI-H522 lung
[39] = tested on: HL-60(TB) leukemia
[40] = tested on: NCI/ADR-RES ovarian
[41] = tested on: UACC-257 melanoma
[42] = tested on: CAKI-1 renal
[43] = tested on: SNB-75 CNS
[44] = tested on: A549 NSCLC
[45] = tested on: RXF 393 renal
[46] = tested on: KM12 colon
[47] = tested on: OVCAR-5 ovarian
[48] = tested on: EKVX NSCLC
[49] = tested on: UO-31 renal
[50] = tested on: U251 CNS
[51] = tested on: SN12C renal
[52] = tested on: MCF7 breast
[53] = tested on: MOLT-4 leukemia
[54] = tested on: BT-549 breast
[55] = tested on: HCC-2998 colon
[56] = tested on: HCT-116 colon
[57] = tested on: 786-0 renal

CN(CC(=O)O)c1ncc2c(n1)-c1ccccc1OC2c1ccccc1 (configuration not stated)
TGI [1]: > 100 µM
TGI [2]: > 100 µM
TGI [3]: > 100 µM
TGI [4]: > 100 µM
TGI [5]: > 100 µM
TGI [6]: > 100 µM
TGI [7]: > 100 µM
TGI [8]: > 100 µM
TGI [9]: > 100 µM
TGI [10]: > 100 µM
TGI [11]: > 100 µM
TGI [12]: > 100 µM
TGI [13]: > 100 µM
TGI [14]: > 100 µM
TGI [15]: > 100 µM
TGI [16]: > 100 µM
TGI [17]: > 100 µM
TGI [18]: > 100 µM
TGI [19]: > 100 µM
TGI [20]: > 100 µM
TGI [21]: > 100 µM
TGI [22]: > 100 µM
TGI [23]: > 100 µM
TGI [24]: > 100 µM
TGI [25]: > 100 µM
TGI [26]: > 100 µM
TGI [27]: > 100 µM
TGI [28]: > 100 µM
TGI [29]: > 100 µM
TGI [30]: > 100 µM
TGI [31]: > 100 µM
TGI [32]: > 100 µM
TGI [33]: > 100 µM
TGI [34]: > 100 µM
TGI [35]: > 100 µM
TGI [36]: > 100 µM
TGI [37]: > 100 µM
TGI [38]: > 100 µM
TGI [39]: > 100 µM
TGI [40]: > 100 µM
TGI [41]: > 100 µM
TGI [42]: > 100 µM
TGI [43]: > 100 µM
TGI [44]: > 100 µM
TGI [45]: > 100 µM
TGI [46]: > 100 µM
TGI [47]: > 100 µM
TGI [48]: > 100 µM
TGI [49]: > 100 µM
TGI [50]: > 100 µM
TGI [51]: > 100 µM
TGI [52]: > 100 µM
TGI [53]: > 100 µM

C=C1C[C@]23CC[C@@H]4C(CO)(CO)CC(=O)C[C@]4(C)[C@@H]2CC[C@H]1C3
TGI [1]: > 100 µM
TGI [2]: > 100 µM
TGI [3]: > 100 µM
TGI [4]: > 100 µM
TGI [5]: > 100 µM
TGI [6]: > 100 µM
TGI [7]: > 100 µM
TGI [8]: > 100 µM
TGI [9]: > 100 µM
TGI [10]: > 100 µM
TGI [11]: > 100 µM
TGI [12]: > 100 µM
TGI [13]: > 100 µM
TGI [14]: > 100 µM
TGI [54]: > 100 µM
TGI [15]: > 100 µM
TGI [16]: > 100 µM
TGI [17]: > 100 µM
TGI [18]: > 100 µM
TGI [19]: > 100 µM
TGI [55]: > 100 µM
TGI [21]: > 100 µM
TGI [22]: > 100 µM
TGI [23]: > 100 µM
TGI [24]: > 100 µM
TGI [25]: > 100 µM
TGI [56]: > 100 µM
TGI [26]: > 100 µM
TGI [27]: > 100 µM
TGI [28]: > 100 µM
TGI [29]: > 100 µM
TGI [30]: > 100 µM
TGI [31]: > 100 µM
TGI [57]: > 100 µM
TGI [32]: > 100 µM
TGI [33]: > 100 µM
TGI [34]: > 100 µM
TGI [35]: 35.9 µM
TGI [36]: > 100 µM
TGI [37]: > 100 µM
TGI [38]: > 100 µM
TGI [39]: > 100 µM
TGI [40]: > 100 µM
TGI [41]: > 100 µM
TGI [42]: > 100 µM
TGI [43]: > 100 µM
TGI [44]: > 100 µM
TGI [47]: > 100 µM
TGI [48]: > 100 µM
TGI [49]: > 100 µM
TGI [50]: > 100 µM
TGI [51]: > 100 µM
TGI [52]: > 100 µM
TGI [53]: > 100 µM
